Consider 16 compounds from patent publication US20260028336A1 (Arcus Biosciences, Inc., priority 2022, published 2026).

In one assay the target is T1, Cbl-b (Homo sapiens, UniProt Q13191).
T1 construct: biotin (biotinylated)
In words: Cbl-b probe displacement HTRF binding assay. The settings on record: 0.4 nM biotinylated Cbl-b, 150 nM BODIPY probe. The method in brief:
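Biotinylated Cbl-b was preincubated with compound for 60 min at room temperature in HEPES/NaCl/Triton/TCEP/BSA buffer. BODIPY probe was added for 15 min, followed by streptavidin-terbium, and the HTRF signal was read. Displacement was normalised to DMSO and no-protein controls, and affinity was obtained from a four-parameter dose-response fit.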
A general note: Time-resolved FRET reads energy transfer from a long-lived donor to a nearby acceptor.

In a further assay the test system is Jurkat cells. In words: IL-2 secretion assay in CD3/CD28-activated Jurkat cells (AlphaLISA). The format is cell-based. The settings on record: Homo sapiens, CD3/CD28 T Cell Activator, 24 h, IL-2 AlphaLISA. On the procedure: Certain compounds were also evaluated in an IL-2 secretion assay. On the day of the assay, a 16 point, 1:2 master serial dilution of each compound was prepared in Opti-MEM to span a final concentration range of 10 μM to 300 pM. Assays were set up in CORNING® tissue culture-treated 384-well microplates containing 60 nL of each dilution. […] 50,000 cells/well and added to the compound plates. After a short spin (1200 rpm for 1 min), the plates were incubated at 37° C. for 1 hour. The cells were activated by adding 15 μL of IMMUNOCULT™ Human CD3/CD28 T Cell Activator ([…] Technologies) diluted in Opti-MEM. […] The AiphaLISA signal was measured using an EnVision plate reader (PerkinElmer). EC50 values were determined by fitting the data to a standard 4-parameter logistic equation.
(In general: In Alpha technology, singlet oxygen from a donor bead excites a nearby acceptor bead.)

Structures are written as SMILES.

T1 sequence (Q13191 whole entry, species assumed): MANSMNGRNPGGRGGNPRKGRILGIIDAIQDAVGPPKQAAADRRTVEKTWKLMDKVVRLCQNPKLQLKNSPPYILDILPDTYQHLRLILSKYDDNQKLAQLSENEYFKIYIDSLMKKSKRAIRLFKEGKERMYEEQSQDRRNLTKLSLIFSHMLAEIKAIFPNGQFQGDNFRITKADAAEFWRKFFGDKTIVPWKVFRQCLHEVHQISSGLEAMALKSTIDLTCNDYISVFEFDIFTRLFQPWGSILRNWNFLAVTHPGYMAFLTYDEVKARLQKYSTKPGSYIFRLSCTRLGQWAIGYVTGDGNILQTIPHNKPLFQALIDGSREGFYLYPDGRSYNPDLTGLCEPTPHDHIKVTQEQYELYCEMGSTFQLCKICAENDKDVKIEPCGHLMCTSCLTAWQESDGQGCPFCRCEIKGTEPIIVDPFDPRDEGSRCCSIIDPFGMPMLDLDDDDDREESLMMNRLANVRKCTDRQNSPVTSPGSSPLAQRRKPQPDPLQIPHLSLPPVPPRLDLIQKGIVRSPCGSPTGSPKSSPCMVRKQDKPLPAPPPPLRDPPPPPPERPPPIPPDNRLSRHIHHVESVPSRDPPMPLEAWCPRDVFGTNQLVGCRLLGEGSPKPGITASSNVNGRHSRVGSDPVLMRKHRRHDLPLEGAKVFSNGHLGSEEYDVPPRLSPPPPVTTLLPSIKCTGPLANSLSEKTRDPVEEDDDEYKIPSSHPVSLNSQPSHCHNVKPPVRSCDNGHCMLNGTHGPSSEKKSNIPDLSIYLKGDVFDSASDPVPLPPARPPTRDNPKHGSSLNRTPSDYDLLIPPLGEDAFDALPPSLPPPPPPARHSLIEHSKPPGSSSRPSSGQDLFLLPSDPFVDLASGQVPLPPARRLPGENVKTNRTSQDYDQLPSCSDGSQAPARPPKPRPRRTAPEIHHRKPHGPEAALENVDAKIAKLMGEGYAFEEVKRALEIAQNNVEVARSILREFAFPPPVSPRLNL

What is called IC50 is the concentration that inhibits the measured activity by half. The EC50 is the midpoint of the concentration-response curve. A higher EC50 goes with lower potency in that assay. For `CC1CC(c2cccc(-n3cc(C4CC4)c4cc(CNC5(CO)CCC5)[nH]c4c3=O)c2)(c2nncn2C)C1` (centres unmarked) [Example 42, 4-cyclopropyl-2-({[1-(hydroxymethyl)cyclobutyl]amino}methyl)-6-{3-[3-methyl-1-(4-methyl-4H-1,2,4-triazol-3-yl)cyclobutyl]phenyl}-1H,6H,7H-pyrrolo[2,3-c]pyridin-7-one], at Cbl-b, the IC50 is less than 100 nM. In addition, the EC50 in the assay with Jurkat cells is less than 100 nM.
As for `CC1CC(c2cccc(-n3cc(C4CC4)c4cc(CN5CCCC[C@@H]5C)[nH]c4c3=O)c2)(c2nncn2C)C1` (some centres unmarked) [Example 43, 4-cyclopropyl-6-{3-[3-methyl-1-(4-methyl-4H-1,2,4-triazol-3-yl)cyclobutyl]phenyl}-2-{[(2S′)-2-methylpiperidin-1-yl]methyl}-1H,6H,7H-pyrrolo[2,3-c]pyridin-7-one], at Cbl-b, the half-inhibitory concentration (IC50) was less than 100 nM. For the same compound, the EC50 with Jurkat cells was less than 100 nM.
At Cbl-b, `CC1CC(c2cccc(-n3cc(C4CC4)c4cc(CN5CCO[C@H](C)C5)[nH]c4c3=O)c2)(c2nncn2C)C1` (stereo partly drawn) [Example 45, 4-cyclopropyl-6-{3-[3-methyl-1-(4-methyl-4H-1,2,4-triazol-3-yl)cyclobutyl]phenyl}-2-{[(2R)-2-methylmorpholin-4-yl]methyl}-1H,6H,7H-pyrrolo[2,3-c]pyridin-7-one] showed an IC50 of less than 100 nM. This compound also came in with an EC50 in the assay on Jurkat cells of less than 100 nM.
At Cbl-b, `CC1CC(c2cccc(-n3cc(C4CC4)c4cc(CNCCOC(F)(F)F)[nH]c4c3=O)c2)(c2nncn2C)C1` (centres unmarked) [Example 46, 4-cyclopropyl-6-{3-[3-methyl-1-(4-methyl-4H-1,2,4-triazol-3-yl)cyclobutyl]phenyl}-2-({[2-(trifluoromethoxy)ethyl]amino}methyl)-1H,6H,7H-pyrrolo[2,3-c]pyridin-7-one] displayed an IC50 of less than 100 nM. The compound also had a concentration giving a half-maximal response (EC50) in the assay on Jurkat cells of 100 to 1000 nM.
For the compound `CC1CC(c2cccc(-n3cc(C4CC4)c4cc(CN(C)C5CCCC5)[nH]c4c3=O)c2)(c2nncn2C)C1` (centres unmarked) [Example 47, 2-{[cyclopentyl(methyl)amino]methyl}-4-cyclopropyl-6-{3-[3-methyl-1-(4-methyl-4H-1,2,4-triazol-3-yl)cyclobutyl]phenyl}-1H,6H,7H-pyrrolo[2,3-c]pyridin-7-one], the half-maximal inhibitory concentration (IC50) on Cbl-b was less than 100 nM. In the assay on Jurkat cells, this compound came in with an EC50 of less than 100 nM.
In the case of `CC1CC(c2cccc(-n3cc(C4CC4)c4cc(CN[C@@H]5CCCOC5)[nH]c4c3=O)c2)(c2nncn2C)C1` (some centres unmarked) [Example 49, 4-cyclopropyl-6-{3-[3-methyl-1-(4-methyl-4H-1,2,4-triazol-3-yl)cyclobutyl]phenyl}-2-{[(oxan-3-yl)amino]methyl}-1H,6H,7H-pyrrolo[2,3-c]pyridin-7-one], at Cbl-b, the half-inhibitory concentration (IC50) was less than 100 nM. This compound returned a concentration for a half-maximal effect (EC50) with Jurkat cells of less than 100 nM.
As to `CC1CC(c2cccc(-n3cc(C4CC4)c4cc(CN5CCC6(CC5)CC6)[nH]c4c3=O)c2)(c2nncn2C)C1` (centres unmarked) [Example 50, 2-({6-azaspiro[2.5]octan-6-yl}methyl)-4-cyclopropyl-6-{3-[3-methyl-1-(4-methyl-4H-1,2,4-triazol-3-yl)cyclobutyl]phenyl}-1H,6H,7H-pyrrolo[2,3-c]pyridin-7-one], the concentration for half-maximal inhibition (IC50) on Cbl-b was less than 100 nM. In the assay on Jurkat cells, this compound returned an EC50 of less than 100 nM.
Compound `CC1CC(c2cccc(-n3cc(C4CC4)c4cc(CN5C[C@H]6C[C@@H]5CO6)[nH]c4c3=O)c2)(c2nncn2C)C1` (stereo partly drawn) [Example 51, 4-cyclopropyl-6-{3-[3-methyl-1-(4-methyl-4H-1,2,4-triazol-3-yl)cyclobutyl]phenyl}-2-{[(1R,4R)-2-oxa-5-azabicyclo[2.2.1]heptan-5-yl]methyl}-1H,6H,7H-pyrrolo[2,3-c]pyridin-7-one] returned an IC50 at Cbl-b of less than 100 nM. This compound also yielded a half-maximal effective concentration (EC50) with Jurkat cells of 100 to 1000 nM.
For `CC1CC(c2cccc(-n3cc(C4CC4)c4cc(CN5CC6CCC5C6)[nH]c4c3=O)c2)(c2nncn2C)C1` (centres unmarked) [Example 52, 2-({2-azabicyclo[2.2.1]heptan-2-yl}methyl)-4-cyclopropyl-6-{3-[3-methyl-1-(4-methyl-4H-1,2,4-triazol-3-yl)cyclobutyl]phenyl}-1H,6H,7H-pyrrolo[2,3-c]pyridin-7-one] the same measures were less than 100 nM and less than 100 nM.
On Cbl-b, `CC1CC(c2cccc(-n3cc(C4CC4)c4cc(CN(C)C5CC5)[nH]c4c3=O)c2)(c2nncn2C)C1` (centres unmarked) [Example 54, 4-cyclopropyl-2-{I[cyclopropyl(methyl)amino]methyl}-6-{3-[3-methyl-1-(4-methyl-4H-1,2,4-triazol-3-yl)cyclobutyl]phenyl}-1H,6H,7H-pyrrolo[2,3-c]pyridin-7-one] returned a 50% inhibitory concentration (IC50) of less than 100 nM. The 50% effective concentration (EC50) in the assay on Jurkat cells fell in the range of 100 to 1000 nM.
`CC1CC(c2cccc(-n3cc(C4CC4)c4cc(CN(C)C)[nH]c4c3=O)c2)(c2nncn2C)C1` (centres unmarked) [Example 55, 4-cyclopropyl-2-[(dimethylamino)methyl]-6-{3-[3-methyl-1-(4-methyl-4H-1,2,4-triazol-3-yl)cyclobutyl]phenyl}-1H,6H,7H-pyrrolo[2,3-c]pyridin-7-one] gave an IC50 on Cbl-b of less than 100 nM. In the assay with Jurkat cells, this compound had an EC50 of less than 100 nM.
`CC1CC(c2cccc(-n3cc(C4CC4)c4cc(CN[C@H]5CCOC5)[nH]c4c3=O)c2)(c2nncn2C)C1` (stereo partly drawn) [Example 56, 4-cyclopropyl-2-({[(3S)-oxolan-3-yl]amino}methyl)-6-{3-[(1r,3s)-3-methyl-1-(4-methyl-4H-1,2,4-triazol-3-yl)cyclobutyl]phenyl}-1H,6H,7H-pyrrolo[2,3-c]pyridin-7-one]: the IC50 on Cbl-b is less than 100 nM. In the assay with Jurkat cells, this compound returned an EC50 of 100 to 1000 nM.
In the case of `CC1CC(c2cccc(-n3cc(C4CC4)c4cc(CN5CCC(F)(F)[C@H](C)C5)[nH]c4c3=O)c2)(c2nncn2C)C1` (stereo partly drawn) [Example 57, 4-cyclopropyl-2-{[(3R)-4,4-difluoro-3-methylpiperidin-1-yl]methyl}-6-{3-[3-methyl-1-(4-methyl-4H-1,2,4-triazol-3-yl)cyclobutyl]phenyl}-1H,6H,7H-pyrrolo[2,3-c]pyridin-7-one], the concentration for half-maximal inhibition (IC50) at Cbl-b is less than 100 nM. The EC50 with Jurkat cells lay in the range of 100 to 1000 nM.
The corresponding values for `CC1CC(c2cccc(-n3cc(C4CC4)c4cc(CN5CC(F)(F)C5)[nH]c4c3=O)c2)(c2nncn2C)C1` (centres unmarked) [Example 58, 4-cyclopropyl-2-[(3,3-difluoroazetidin-1-yl)methyl]-6-{3-[3-methyl-1-(4-methyl-4H-1,2,4-triazol-3-yl)cyclobutyl]phenyl}-1H,6H,7H-pyrrolo[2,3-c]pyridin-7-one] are less than 100 nM and 100 to 1000 nM.
At Cbl-b, `CC1CC(c2cccc(-n3cc(C4CC4)c4cc(CN5C[C@@H]6C[C@H]5CN6)[nH]c4c3=O)c2)(c2nncn2C)C1` (stereo partly drawn) [Example 59, 4-cyclopropyl-2-{[(1S,4S)-2,5-diazabicyclo[2.2.1]heptan-2-yl]methyl}-6-{3-[3-methyl-1-(4-methyl-4H-1,2,4-triazol-3-yl)cyclobutyl]phenyl}-1H,6H,7H-pyrrolo[2,3-c]pyridin-7-one] showed an IC50 of less than 100 nM. For the same compound, the EC50 with Jurkat cells is greater than 5000 nM.
Turning to `CC1CC(c2cccc(-n3cc(C4CC4)c4cc(CN5[C@@H]6COC[C@H]5C6)[nH]c4c3=O)c2)(c2nncn2C)C1` (stereo partly drawn) [Example 60, 4-cyclopropyl-6-{3-[3-methyl-1-(4-methyl-4H-1,2,4-triazol-3-yl)cyclobutyl]phenyl}-2-{[(1R,5S)-3-oxa-6-azabicyclo[3.1.1]heptan-6-yl]methyl}-1H,6H,7H-pyrrolo[2,3-c]pyridin-7-one], the half-maximal inhibitory concentration (IC50) on Cbl-b was less than 100 nM. In addition, the EC50 with Jurkat cells lay within 1000 to 5000 nM.
